Laboratory results reported in US9453040B2, “Glycodendrimers of polypropyletherimine” (priority 2010, dated 2016).

System: pro-inflammatory cytokines such as IL-6, IL-8, IL-1 beta, TNF-alpha and MIP-1 beta
Assay: Effect of unconjugated components on pro-inflammatory cytokines
Type: cell-based
Conditions: even at high doses

## N[C@H]1C(O)O[C@H](CO)[C@@H](O)[C@@H]1O (stereo partly shown) [glucosamine]
  effect on pro-inflammatory cytokines such as IL-6, IL-8, IL-1 beta, TNF-alpha and MIP-1 beta: no effect
